Patent US5846525A, “Protected biopolymers for oral administration and methods of using same” (Trega Biosciences, Inc., priority 1995, dated 1998)
Several values for one entry are separate records, joined by “and”; a condition that tells them apart may be missing. Equal entries are not always repeated.

What was measured:
[1] = Binding of CRA-1 to Amberlite IRP-69 cation exchange resin (HPLC of filtrate); format: physicochemical
Protocol: CRA-1, which has the amino acid sequence Ac-Nle-Gln-His-(D)Phe-Arg-(D)Trp-Gly-NH2, was prepared as described in U.S. Pat. No. 5,420,109, where it is referred to as "EX-2." A 1 mg/ml solution of peptide CRA-1 was prepared by dissolving 19.7 mg CRA-1 in 19.7 ml PBS. Ten mg Amberlite® IRP-69 ("IRP-69") (Rohm and Haas) was added to 5 ml CRA-1 solution (5 mg CRA-1) to achieve a CRA-1:IRP-69 ratio of 1:2. The mixture was adjusted to pH 6.0 and stirred for 2 hr. The suspension then was filtered and the filtrate was analyzed by HPLC (see Example II.A) to determine the total amount of CRA-1 bound to IRP-69. Binding also was performed using CRA-1:IRP-69 ratios of 1:20 and 1:200.

[2] = target: T1, chymotrypsin (Bos taurus, UniProt P00766); test: Susceptibility of free peptide to enzymatic degradation by chymotrypsin; format: in vitro ADME; conditions: 37° C.
Protocol: (§1) Phosphate buffered saline (PBS) solutions were prepared and adjusted to pH 5.0, 7.0 or 8.0. CRA-1 was dissolved into each of the PBS solutions to a final concentration of 3 mg/ml. Samples of 3 mg/ml trypsin and 3 mg/ml chymotrypsin also were prepared in PBS at pH 5.0, 7.0 or 8.0.
(§2) To examine the susceptibility of CRA-1 to trypsin and chymotrypsin, 1 ml CRA-1 solution at pH 5.0 was mixed with 1 ml trypsin solution at pH 5.0 and 1 ml PBS (pH 5.0) to obtain a final concentration of 1 mg/ml CRA-1 and 1 mg/ml trypsin. Similar assay samples were prepared to examine the stability of CPA-1 in trypsin at pH 7.0 or pH 8.0 and in chymotrypsin at pH 5.0, 7.0 or 8.0. As a control, an assay sample was prepared without trypsin or chymotrypsin.
(§3) Immediately upon preparing an assay sample, 100 μl of the incubation mixture was removed and the reaction was terminated by adding 100 μl of a Stop solution (90% acetonitrile containing 0.1% trifluoroacetic acid). These samples were analyzed by HPLC to determine the amount of CRA-1 present in each sample at the initiation of the reaction.
(§4) The remainder of each assay sample was incubated in an oven at 37° C. At selected times after beginning the incubation, a 100 μl aliquot was withdrawn, the reaction was terminated as described above. The samples were analyzed by HPLC to determine the amount of intact CRA-1.

[3] = target: T2, trypsin (Bos taurus, UniProt P00760); test: Susceptibility of free peptide to enzymatic degradation by trypsin; format: in vitro ADME; conditions: 37° C.
T2 construct: gene PRSS1
T2 sequence (P00760 24-246): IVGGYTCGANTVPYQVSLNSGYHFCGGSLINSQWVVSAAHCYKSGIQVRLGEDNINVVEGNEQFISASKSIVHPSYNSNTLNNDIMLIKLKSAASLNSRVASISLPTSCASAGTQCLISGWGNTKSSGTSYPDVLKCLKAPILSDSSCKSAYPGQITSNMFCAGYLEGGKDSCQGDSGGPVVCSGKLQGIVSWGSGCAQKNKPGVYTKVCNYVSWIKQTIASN
Protocol: as §1, §2, §3, §4

[4] = target: T1, chymotrypsin; test: Stability of peptide-ion exchange resin complex to enzymatic degradation by chymotrypsin; format: in vitro ADME; conditions: unbound control
Protocol: (§5) Fifty mg or 100 mg of the complex was suspended in 5 ml of PBS (pH 7.0) containing either 1 mg/ml trypsin or 1 mg/ml chymotrypsin. The suspensions were rotated at 200 rpm in an incubator at 37° C. for 2 hr. Following incubation, the suspension was vacuum-filtered and the filtrate was analyzed by HPLC to determine the amount of CRA-1 bound to the IRP-64. […] After 1 hr, the suspension was vacuum-[…] ion exchange resin was washed and filtered a second time with 50 ml 2M KCl. The filtrate and wash were analyzed by HPLC to determine the amount of drug recovered from the ion exchange resin.

[5] = system: chymotrypsin; test: as above; format: in vitro ADME; conditions: isolated enzyme chymotrypsin, pH 7, unbound control, read-out: CRA-1 remaining
Protocol: as §5

[6] = system: T3, trypsin; test: Stability of peptide-ion exchange resin complex to enzymatic degradation by trypsin; format: in vitro ADME; conditions: isolated enzyme trypsin, pH 7, unbound control, read-out: CRA-1 remaining
T3 construct: gene PRSS1
Protocol: as §5

[7] = target: T2, trypsin; test: as above; format: in vitro ADME; conditions: unbound control
Protocol: as §5

[8] = Binding of CRA-1 to Amberlite IRP-64 cation exchange resin (HPLC of filtrate); format: physicochemical
Protocol: A 1 mg/ml CRA-1 solution was prepared by dissolving 42.5 mg CRA-1 in 42.5 ml PBS. Fifty mg Amberlite® IRP-64 ("IRP-64") (Rohm and Haas) was added to 5 ml CRA-1 solution (5 mg CRA-1) to achieve a peptide:resin ratio of 1:10. The mixture was adjusted to pH 6.0 and stirred for 1 hr. The suspension was filtered and the filtrate was analyzed by HPLC (see Example II.A) to determine the total amount of CRA-1 bound to IRP-64. Binding also was performed using CRA-1: IRP-64 ratios of 1:1, 1:2 and 1:20.

With CCCC[C@H](NC(C)=O)C(=O)N[C@@H](CCC(N)=O)C(=O)N[C@@H](Cc1c[nH]cn1)C(=O)N[C@H](Cc1ccccc1)C(=O)N[C@@H](CCCNC(=N)N)C(=O)N[C@H](Cc1c[nH]c2ccccc12)C(=O)NCC(N)=O [CRA-1, Ac-Nle-Gln-His-(D)Phe-Arg-(D)Trp-Gly-NH2] as the compound, how does the “CRA-1 bound to ion exchange resin” value ([1]; IRP-69, peptide:resin ratio 1:2, PBS pH 6.0, stirred 2 hr) read?
The value was 66.91%.

What about the “CRA-1 bound to ion exchange resin” value ([1]; IRP-69, peptide:resin ratio 1:20, PBS pH 6.0, stirred 2 hr) of the same compound?
Its value is 99.63%.

What about the “CRA-1 bound to ion exchange resin” value ([1]; IRP-69, peptide:resin ratio 1:200, PBS pH 6.0, stirred 2 hr) of the same compound?
Its value is 99.5% and 99.52%.

And the “stability in the presence of chymotrypsin” value ([2]; pH 5.0, 1 mg/ml CRA-1, 1 mg/ml chymotrypsin)?
Its value is “stable”.

And the “half-life of degradation by chymotrypsin” value ([2]; pH 7.0 or 8.0, 1 mg/ml CRA-1, 1 mg/ml chymotrypsin)?
The value was 20 to 30 min.

What about the “stability in the presence of trypsin” value ([3]; pH 5.0, 1 mg/ml CRA-1, 1 mg/ml trypsin) of the same compound?
Its value is “stable”.

And the “half-life of degradation by trypsin” value ([3]; pH 7.0 or 8.0, 1 mg/ml CRA-1, 1 mg/ml trypsin)?
The value was 20 to 30 min.

What about the CRA-1 remaining [4] of the same compound?
Its CRA-1 remaining is “almost completely degraded”.

And the remaining at 2 h [5]?
Its remaining at 2 h is 5.47%.

What about the remaining at 2 h [6] of the same compound?
The remaining at 2 h was 2.96%.

And the CRA-1 remaining [7]?
The CRA-1 remaining was “almost completely degraded”.

What about the “CRA-1 bound to ion exchange resin” value ([8]; IRP-64, peptide:resin ratio 1:1, PBS pH 6.0, stirred 1 hr) of the same compound?
The value was 10.48%.

What about the “CRA-1 bound to ion exchange resin” value ([8]; IRP-64, peptide:resin ratio 1:2, PBS pH 6.0, stirred 1 hr) of the same compound?
The value was 20.08%.

And the “CRA-1 bound to ion exchange resin” value ([8]; IRP-64, peptide:resin ratio 1:10, PBS pH 6.0, stirred 1 hr)?
The value was 97.55%.

And the “CRA-1 bound to ion exchange resin” value ([8]; IRP-64, peptide:resin ratio 1:20, PBS pH 6.0, stirred 1 hr)?
The value was 98.97%.
